From article PMC11882969 (Nature Communications, 2025)
“And” between values parts separate entries of the source, which are not always exact repeats. Equal values may be shown once.

How the values were obtained:
hCB1 [1] = biological target: T1, hCB1 (Homo sapiens, UniProt P21554); test: bioSensAll ebBRET signaling profiling, hCB1; format: cell-based; design: host or cells: HEK293SL cells, transient PEI transfection; conditions: for Gi1 hCB1 response: Gi1 biosensor; for Gi1 hCB1 / GoB hCB1: single replicate values, FigS6a; for EC50: read-out: EC50 [95% CI]; for Emax: normalized to CP-55,940
T1 sequence (P21554 whole entry): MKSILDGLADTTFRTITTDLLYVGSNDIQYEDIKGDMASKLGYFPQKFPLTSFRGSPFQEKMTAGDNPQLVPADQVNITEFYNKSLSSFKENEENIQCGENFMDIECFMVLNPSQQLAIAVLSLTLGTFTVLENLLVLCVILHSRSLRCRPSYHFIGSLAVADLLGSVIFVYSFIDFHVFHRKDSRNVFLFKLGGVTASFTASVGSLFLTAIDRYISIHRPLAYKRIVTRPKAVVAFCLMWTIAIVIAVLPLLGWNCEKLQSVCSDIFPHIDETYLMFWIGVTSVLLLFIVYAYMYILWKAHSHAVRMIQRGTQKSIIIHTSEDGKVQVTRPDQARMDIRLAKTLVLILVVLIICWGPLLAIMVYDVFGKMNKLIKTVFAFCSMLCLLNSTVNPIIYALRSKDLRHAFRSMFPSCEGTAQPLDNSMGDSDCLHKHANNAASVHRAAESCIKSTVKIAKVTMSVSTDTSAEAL

CB1 (rCB1) [2] = biological target: T2, CB1 (rCB1) (Rattus norvegicus, UniProt P20272); test: Radioligand competition binding, [3H]-CP-55,940, rat brain membranes
T2 sequence (P20272 whole entry): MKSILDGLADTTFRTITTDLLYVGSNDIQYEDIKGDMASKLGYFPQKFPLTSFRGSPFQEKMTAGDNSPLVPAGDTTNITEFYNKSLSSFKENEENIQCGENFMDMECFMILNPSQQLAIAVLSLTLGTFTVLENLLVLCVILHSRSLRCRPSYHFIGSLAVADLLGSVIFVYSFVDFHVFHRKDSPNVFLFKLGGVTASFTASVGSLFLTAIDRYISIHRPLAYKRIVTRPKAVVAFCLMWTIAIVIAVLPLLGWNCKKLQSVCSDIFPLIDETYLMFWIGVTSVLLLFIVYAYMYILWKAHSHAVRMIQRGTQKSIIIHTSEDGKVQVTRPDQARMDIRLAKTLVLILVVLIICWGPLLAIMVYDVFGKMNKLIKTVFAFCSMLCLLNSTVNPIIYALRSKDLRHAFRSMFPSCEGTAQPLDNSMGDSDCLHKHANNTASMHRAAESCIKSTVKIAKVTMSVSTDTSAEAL

hCB2 = hCB2 (Homo sapiens, UniProt P34972); test: Tango β-arrestin-2 recruitment, HTLA cells, CB2R; format: cell-based; design: expressed in transfected cells; host or cells: HEK293 cells stably expressing human CB2R (Laboratory of Ken Mackie); conditions: hCB2
hCB2, sequence (P34972 whole entry): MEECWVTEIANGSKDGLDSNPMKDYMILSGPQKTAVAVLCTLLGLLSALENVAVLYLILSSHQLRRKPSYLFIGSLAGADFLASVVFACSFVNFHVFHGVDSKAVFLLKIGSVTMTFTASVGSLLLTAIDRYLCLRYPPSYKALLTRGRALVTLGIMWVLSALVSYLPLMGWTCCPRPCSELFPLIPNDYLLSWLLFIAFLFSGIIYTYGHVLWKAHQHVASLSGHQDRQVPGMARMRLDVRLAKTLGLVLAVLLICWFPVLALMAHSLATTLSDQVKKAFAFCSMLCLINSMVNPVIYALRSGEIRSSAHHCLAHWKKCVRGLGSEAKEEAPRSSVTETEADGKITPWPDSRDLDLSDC

CB1 (rCB1) [3] = biological target: T2, CB1 (rCB1); test: Single-point radioligand displacement screen; format: binding; conditions: 10 µM, 1 µM or 300 nM by cell colour (not visible)
hCB1 [4] = biological target: T1, hCB1; test: Lance Ultra cAMP accumulation assay, CHO cells; format: cell-based; design: expressed in transfected cells; conditions: for normalised cAMP response, concentration-response (Figure2f), replicate values: log[Compound;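 on all read-outs here: human CB1R stably expressed in CHO cells, ligands co-incubated with forskolin at room temperature, read-out is lowering of forskolin-stimulated cAMP accumulation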

SMILES: COC(=O)C(NC(=O)c1cc(C)n(-c2cccc(C(F)(F)F)c2)n1)c1cccs1 (stereo not shown) [‘60154]
- Gi1 hCB1 response (hCB1 [1]; Log [Compound] (M) -4.22186): 135.687
- Gi1 hCB1 response (hCB1 [1]; Log [Compound] (M) -4.63927): 128.615
- Gi1 hCB1 response (hCB1 [1]; Log [Compound] (M) -5.05788): 93.8563
- Gi1 hCB1 response (hCB1 [1]; Log [Compound] (M) -5.47381): 94.0353
- Gi1 hCB1 response (hCB1 [1]; Log [Compound] (M) -5.89285): 102.272
- Gi1 hCB1 response (hCB1 [1]; Log [Compound] (M) -6.31878): 90.7452
- Gi1 hCB1 response (hCB1 [1]; Log [Compound] (M) -6.72585): 85.0156
- Gi1 hCB1 response (hCB1 [1]; Log [Compound] (M) -7.14267): 90.8795
- Gi1 hCB1 response (hCB1 [1]; Log [Compound] (M) -7.55284): 57.4417
- Gi1 hCB1 response (hCB1 [1]; Log [Compound] (M) -8): 57.3074
- Gi1 hCB1 response (hCB1 [1]; Log [Compound] (M) -8.22186): 41.0808
- Gi1 hCB1 response (hCB1 [1]; Log [Compound] (M) -8.39794): 29.6663
- Gi1 hCB1 response (hCB1 [1]; Log [Compound] (M) -8.68787): 9.254
- Gi1 hCB1 response (hCB1 [1]; Log [Compound] (M) -9.15521): -1.31
- Gi1 hCB1 response (hCB1 [1]; Log [Compound] (M) -9.61989): -12.1646
- Gi1 hCB1 response (hCB1 [1]; Log [Compound] (M) -10.0969): 3.838
- Gi1 hCB1 response (hCB1 [1]; Log [Compound] (M) -10.5529): 8.852
- Gi1 hCB1 response (hCB1 [1]; Log [Compound] (M) -11.0177): -14.1566
- Gi1 hCB1 response (hCB1 [1]; Log [Compound] (M) -11.4949): -8.897
- Gi1 hCB1 response (hCB1 [1]; Log [Compound] (M) -11.9208): 6.613
- Gi1 hCB1 response (hCB1 [1]; Log [Compound] (M) -12.3979): -8.651
- Gi1 hCB1 response (hCB1 [1]; Log [Compound] (M) -12.8861): -7.89
- Gi1 hCB1 response (hCB1 [1]; Log [Compound] (M) -13, individual replicate values): -1.847 and -6.9945
- Gi1 hCB1 (hCB1 [1]; Log [Compound] (M) -4.22186): 97.0901
- GoB hCB1 (hCB1 [1]; Log [Compound] (M) -4.22186): 92.7297
- Gi1 hCB1 (hCB1 [1]; Log [Compound] (M) -4.63927): 95.1785
- GoB hCB1 (hCB1 [1]; Log [Compound] (M) -4.63927): 96.2724
- Gi1 hCB1 (hCB1 [1]; Log [Compound] (M) -5.05788): 93.4672
- GoB hCB1 (hCB1 [1]; Log [Compound] (M) -5.05788): 98.1786
- Gi1 hCB1 (hCB1 [1]; Log [Compound] (M) -5.47381): 90.2143
- GoB hCB1 (hCB1 [1]; Log [Compound] (M) -5.47381): 107.08
- Gi1 hCB1 (hCB1 [1]; Log [Compound] (M) -5.89285): 87.9019
- GoB hCB1 (hCB1 [1]; Log [Compound] (M) -5.89285): 95.1574
- Gi1 hCB1 (hCB1 [1]; Log [Compound] (M) -6.31878): 75.1986
- GoB hCB1 (hCB1 [1]; Log [Compound] (M) -6.31878): 99.5993
- Gi1 hCB1 (hCB1 [1]; Log [Compound] (M) -6.72585): 72.9632
- GoB hCB1 (hCB1 [1]; Log [Compound] (M) -6.72585): 94.8877
- Gi1 hCB1 (hCB1 [1]; Log [Compound] (M) -7.14267): 69.0474
- GoB hCB1 (hCB1 [1]; Log [Compound] (M) -7.14267): 78.6487
- Gi1 hCB1 (hCB1 [1]; Log [Compound] (M) -7.55284): 54.4325
- GoB hCB1 (hCB1 [1]; Log [Compound] (M) -7.55284): 63.3449
- Gi1 hCB1 (hCB1 [1]; Log [Compound] (M) -8): 27.0835
- GoB hCB1 (hCB1 [1]; Log [Compound] (M) -8): 30.6512
- Gi1 hCB1 (hCB1 [1]; Log [Compound] (M) -8.22186): 23.9076
- GoB hCB1 (hCB1 [1]; Log [Compound] (M) -8.22186): 16.822
- Gi1 hCB1 (hCB1 [1]; Log [Compound] (M) -8.39794): 14.1027
- GoB hCB1 (hCB1 [1]; Log [Compound] (M) -8.39794): 15.743
- Gi1 hCB1 (hCB1 [1]; Log [Compound] (M) -8.68787): 6.5794
- GoB hCB1 (hCB1 [1]; Log [Compound] (M) -8.68787): 4.5753
- Gi1 hCB1 (hCB1 [1]; Log [Compound] (M) -9.15521): 2.17
- GoB hCB1 (hCB1 [1]; Log [Compound] (M) -9.15521): -0.7658
- Gi1 hCB1 (hCB1 [1]; Log [Compound] (M) -9.61989): 0.08902
- GoB hCB1 (hCB1 [1]; Log [Compound] (M) -9.61989): 0.7808
- Gi1 hCB1 (hCB1 [1]; Log [Compound] (M) -10.0969): -0.8206
- GoB hCB1 (hCB1 [1]; Log [Compound] (M) -10.0969): -0.1723
- Gi1 hCB1 (hCB1 [1]; Log [Compound] (M) -10.5529): 0.8599
- GoB hCB1 (hCB1 [1]; Log [Compound] (M) -10.5529): -2.762
- Gi1 hCB1 (hCB1 [1]; Log [Compound] (M) -11.0177): 1.677
- GoB hCB1 (hCB1 [1]; Log [Compound] (M) -11.0177): -1.018
- Gi1 hCB1 (hCB1 [1]; Log [Compound] (M) -11.4949): 1.6461
- GoB hCB1 (hCB1 [1]; Log [Compound] (M) -11.4949): -1.935
- Gi1 hCB1 (hCB1 [1]; Log [Compound] (M) -11.9208): -0.003475
- GoB hCB1 (hCB1 [1]; Log [Compound] (M) -11.9208): -0.2982
- Gi1 hCB1 (hCB1 [1]; Log [Compound] (M) -12.3979): 0.3049
- GoB hCB1 (hCB1 [1]; Log [Compound] (M) -12.3979): 0.619
- Gi1 hCB1 (hCB1 [1]; Log [Compound] (M) -12.8861): 1.261
- GoB hCB1 (hCB1 [1]; Log [Compound] (M) -12.8861): -2.69
- Gi1 hCB1 (hCB1 [1]; Log [Compound] (M) -13): 0.459 and 0.9986
- GoB hCB1 (hCB1 [1]; Log [Compound] (M) -13): -0.2622 and -1.953
- pEC50 [95% CI] (hCB1 [1]; hCB1 Gi1): 7.6 [7.5 – 7.7]
- pEC50 [95% CI] (hCB1 [1]; hCB1 GoB): 7.7 [7.7 – 7.8]
- pEC50 [95% CI] (hCB1 [1]; hCB1 Gz): 7.8 [7.4 – 8.1]
- EC50 (hCB1 [1]; hCB1 Gi1): 2.5 nM
- EC50 (hCB1 [1]; hCB1 GoB): 18.4 nM
- EC50 (hCB1 [1]; hCB1 Gz): 17.5 nM
- Emax (hCB1 [1]; read-out: Emax [95% CI], hCB1 Gi1): 92%
- Emax (hCB1 [1]; read-out: Emax [95% CI], hCB1 GoB): 100%
- Emax (hCB1 [1]; read-out: Emax [95% CI], hCB1 Gz): 121%
- improvement in affinity (free energy) (CB1 (rCB1) [2]; CF3 replacing F, ‘51486 vs ‘60154): -1.7 kcal/mol
- LLE (lipophilic ligand efficiency) (CB1 (rCB1) [2]; LLE = pIC50 − clogP): 3.5
- binding free energy ΔG (CB1 (rCB1) [2]; from measured Ki): 10.0 kcal/mol
- LE (ligand efficiency) (CB1 (rCB1) [2]; from rCB1 affinity): 0.36
- pKi [95% CI] (CB1 (rCB1) [2]; rCB1): 7.4 [7.2 – 7.5]
- Ki (CB1 (rCB1) [2]; read-out: Ki [95% CI], rCB1, [3H]-CP-55,940): 44 nM and 44.3 nM
- fold improvement in CB1R affinity (CB1 (rCB1) [2]; vs parent hit or analog without the change): 17 fold
- Emax (hCB2; HTLA, read-out: Tango ß-arrestin recruitment Emax): 21%
- Tango ß-arrestin recruitment pEC50 (hCB2): 5.5 [5.4 – 5.6]
- EC50 (hCB2; read-out: Tango ß-arrestin recruitment EC50): 3340 nM
- % 1H-CP-55,940 displacement (mean) from single point screen (CB1 (rCB1) [3]): 97.23%
- EC50 (hCB1 [4]): 351 nM
- Lance Ultra cAMP pEC50 (hCB1 [4]): 6.5 [7.0]
- Emax (hCB1 [4]; CHO): 67%
- normalised cAMP response, concentration-response (Figure2f), replicate values (hCB1 [4]; M] -5): 47.6767 and 42.0056 and 42.3397
- normalised cAMP response, concentration-response (Figure2f), replicate values (hCB1 [4]; M] -6): 18.5649 and 64.1261 and 62.9313 and 54.4312
- normalised cAMP response, concentration-response (Figure2f), replicate values (hCB1 [4]; M] -7): 60.7575 and 85.7016 and 74.1727 and 91.7418
- normalised cAMP response, concentration-response (Figure2f), replicate values (hCB1 [4]; M] -8): 71.1204 and 91.8821 and 99.3075 and 104.869
- normalised cAMP response, concentration-response (Figure2f), replicate values (hCB1 [4]; M] -9): 80.377 and 105.423 and 95.8256 and 102.017
- normalised cAMP response, concentration-response (Figure2f), replicate values (hCB1 [4]; M] -10): 87.3077 and 96.5214 and 96.3615 and 92.9435
- normalised cAMP response, concentration-response (Figure2f), replicate values (hCB1 [4]; M] -11): 91.1852 and 100.567 and 97.003 and 102.336
- normalised cAMP response, concentration-response (Figure2f), replicate values (hCB1 [4]; M] -12): 91.9633 and 106.344 and 93.1819 and 97.7717
